Results reported in patent US10407425B2, “Indazole inhibitors of the Wnt signal pathway and therapeutic uses thereof” (Samumed, LLC, priority 2012, dated 2019).
pIC50: −log10 of the molar value.

System: Wnt activity
Experiment: Wnt activity reporter assay (SP5 promoter firefly luciferase in SW480 cells)
Type: cell-based
Details: Homo sapiens; SW480 cells bearing SP5 promoter luciferase reporter; 24 h after compound addition; read-out: Wnt inhibition
Source text: The above synthesized compounds were screened using the assay procedure for Wnt activity described below.
Reporter cell lines can be generated by stably transducing cells of cancer cell lines (e.g., colon cancer) with a lentiviral construct that include a wnt-responsive promoter driving expression of the firefly luciferase gene.
Lentiviral constructs can be made in which the SP5 promoter, a promoter having eight TCF/LEF binding sites derived from the SP5 promoter, is linked upstream of the firefly luciferase gene. The lentiviral constructs can also include a hygromycin resistance gene as a selectable marker. The SP5 promoter construct can be used to transduce SW480 cells, a colon cancer cell line having a mutated APC gene that generates a truncated APC protein, leading to de-regulated accumulation of β-catenin.
Cultured SW480 cells bearing a reporter construct can be distributed at approximately 10,000 cells per well into 384 well multiwell plates. Compounds from a small molecule compound library can then be added to the wells in half-log dilutions using a three micromolar top concentration. A series of control wells for each cell type receive only buffer and compound solvent. Twenty-four hours after the addition of compound, reporter activity for luciferases can be assayed, for example, by addition of the BrightGlo luminescence reagent (Promega) and the Victor3 plate reader (Perkin Elmer). Readings can be normalized to DMSO only treated cells, and normalized activities can then be used in the IC50 calculations.

| pIC50 | SMILES |
| --- | --- |
| 7.46 | c1cncc(-c2ccc3[nH]nc(-c4nc5c(-c6cccnc6)cncc5[nH]4)c3c2)c1 [Compound 136, 7-(Pyridin-3-yl)-2-(5-(pyridin-3-yl)-1H-indazol-3-yl)-3H-imidazo[4,5-c]pyridine] |
| 7.64 | O=C(Cc1ccccc1)Nc1cncc(-c2ccc3[nH]nc(-c4nc5c(-c6cccc(F)c6)cncc5[nH]4)c3c2)c1 [Compound 86, N-(5-(3-(7-(3-Fluorophenyl)-3H-imidazo[4,5-c]pyridin-2-yl)-1H-indazol-5-yl)pyridin-3-yl)-2-phenylacetamide] |
| 8.52 | CCC(=O)Nc1cncc(-c2ccc3[nH]nc(-c4nc5c(-c6ccccn6)cncc5[nH]4)c3c2)c1 [Compound 174, N-(5-(3-(7-(Pyridin-2-yl)-3H-imidazo[4,5-c]pyridin-2-yl)-1H-indazol-5-yl)pyridin-3-yl)propionamide] |
| 8.30 | CC(C)C(=O)Nc1cncc(-c2ccc3[nH]nc(-c4nc5c(-c6ccccc6F)cncc5[nH]4)c3c2)c1 [Compound 31, N-(5-(3-(7-(2-Fluorophenyl)-3H-imidazo[4,5-c]pyridin-2-yl)-1H-indazol-5-yl)pyridin-3-yl)isobutyramide] |
| 6.27 | Cc1ccncc1-c1ccc2[nH]nc(-c3nc4c(N5CCCCC5)cncc4[nH]3)c2c1 [Compound 202, 2-(5-(4-Methylpyridin-3-yl)-1H-indazol-3-yl)-7-(piperidin-1-yl)-3H-imidazo[4,5-c]pyridine] |
| 9.00 | CC(C)Nc1cncc(-c2ccc3[nH]nc(-c4nc5c(-c6ccccc6F)cncc5[nH]4)c3c2)c1 [Compound 124, 5-(3-(7-(2-Fluorophenyl)-3H-imidazo[4,5-c]pyridin-2-yl)-1H-indazol-5-yl)-N-isopropylpyridin-3-amine] |
| 8.15 | O=C(Nc1cncc(-c2ccc3[nH]nc(-c4nc5c(-c6ccc(F)cc6)cncc5[nH]4)c3c2)c1)c1ccccc1 [Compound 104, N-(5-(3-(7-(4-Fluorophenyl)-3H-imidazo[4,5-c]pyridin-2-yl)-1H-indazol-5-yl)pyridin-3-yl)benzamide] |
| 7.07 | CN1CCN(c2cncc3[nH]c(-c4n[nH]c5ccc(-c6cncc(NC(=O)C7CCCCC7)c6)cc45)nc23)CC1 [Compound 263, N-(5-(3-(7-(4-Methylpiperazin-1-yl)-3H-imidazo[4,5-c]pyridin-2-yl)-1H-indazol-5-yl)pyridin-3-yl)cyclohexanecarboxamide] |
| 7.41 | O=C(Nc1cncc(-c2ccc3[nH]nc(-c4nc5c(N6CCCCC6)cncc5[nH]4)c3c2)c1)C1CCC1 [Compound 217, N-(5-(3-(7-(Piperidin-1-yl)-3H-imidazo[4,5-c]pyridin-2-yl)-1H-indazol-5-yl)pyridin-3-yl)cyclobutanecarboxamide] |
| 7.02 | CN1CCN(c2cncc3[nH]c(-c4n[nH]c5ccc(-c6cncc(NC(=O)CC(C)(C)C)c6)cc45)nc23)CC1 [Compound 257, 3,3-Dimethyl-N-(5-(3-(7-(4-methylpiperazin-1-yl)-3H-imidazo[4,5-c]pyridin-2-yl)-1H-indazol-5-yl)pyridin-3-yl)butanamide] |
| 6.00 | c1cc(-c2cncc3[nH]c(-c4n[nH]c5ccc(-c6cncc(CN7CCCCC7)c6)cc45)nc23)cs1 [Compound 303, 2-(5-(5-(Piperidin-1-ylmethyl)pyridin-3-yl)-1H-indazol-3-yl)-7-(thiophen-3-yl)-3H-imidazo[4,5-c]pyridine] |
| 8.40 | CCCCC(=O)Nc1cncc(-c2ccc3[nH]nc(-c4nc5c(-c6ccoc6)cncc5[nH]4)c3c2)c1 [Compound 329, N-(5-(3-(7-(Furan-3-yl)-3H-imidazo[4,5-c]pyridin-2-yl)-1H-indazol-5-yl)pyridin-3-yl)pentanamide] |
| 6.53 | c1cc(-c2cncc3[nH]c(-c4n[nH]c5ccc(-c6cncc(CN7CCCC7)c6)cc45)nc23)ccn1 [Compound 163, 7-(Pyridin-4-yl)-2-(5-(5-(pyrrolidin-1-ylmethyl)pyridin-3-yl)-1H-indazol-3-yl)-3H-imidazo[4,5-c]pyridine] |
| 6.33 to 6.67 | CN1CCN(c2cncc(-c3ccc4[nH]nc(-c5nc6ccncc6[nH]5)c4c3)c2)CC1 [Compound 7, 2-(5-(5-(4-methylpiperazin-1-yl)pyridin-3-yl)-1H-indazol-3-yl)-3H-imidazo[4,5-c]pyridine] |
| 9.00 | Nc1cncc(-c2ccc3[nH]nc(-c4nc5c(-c6ccc(F)cc6)cncc5[nH]4)c3c2)c1 [Compound 97, 5-(3-(7-(4-Fluorophenyl)-3H-imidazo[4,5-c]pyridin-2-yl)-1H-indazol-5-yl)pyridin-3-amine] |
| 8.10 to 8.22 | CC(C)CC(=O)Nc1cncc(-c2ccc3[nH]nc(-c4nc5c(-c6ccc(F)cc6)cncc5[nH]4)c3c2)c1 [Compound 12, N-(5-(3-(7-(4-fluorophenyl)-3H-imidazo[4,5-c]pyridin-2-yl)-1H-indazol-5-yl)pyridin-3-yl)-3-methylbutanamide] |

| pIC50 | SMILES |
| --- | --- |
| < 5.00 | O=C(Cc1ccccc1)Nc1cncc(-c2ccc3[nH]nc(-c4nc5ccncc5[nH]4)c3c2)c1 [Compound 274, N-(5-(3-(3H-Imidazo[4,5-c]pyridin-2-yl)-1H-indazol-5-yl)pyridin-3-yl)-2-phenylacetamide] |
| < 5.30 | Cc1ccncc1-c1ccc2[nH]nc(-c3nc4c(-c5ccc(F)cc5)cncc4[nH]3)c2c1 [Compound 99, 7-(4-Fluorophenyl)-2-(5-(4-methylpyridin-3-yl)-1H-indazol-3-yl)-3H-imidazo[4,5-c]pyridine] |
| < 5.00 | Nc1cncc(-c2ccc3[nH]nc(-c4nc5ccncc5[nH]4)c3c2)c1 [Compound 268, 5-(3-(3H-Imidazo[4,5-c]pyridin-2-yl)-1H-indazol-5-yl)pyridin-3-amine] |
| 7.19 to 8.46 | CC(C)CC(=O)Nc1cncc(-c2ccc3[nH]nc(-c4nc5c(-c6ccccc6F)cncc5[nH]4)c3c2)c1 [Compound 11, N-(5-(3-(7-(2-fluorophenyl)-3H-imidazo[4,5-c]pyridin-2-yl)-1H-indazol-5-yl)pyridin-3-yl)-3-methylbutanamide] |
| 7.70 | FC1(F)CCN(Cc2cncc(-c3ccc4[nH]nc(-c5nc6c(N7CCCCC7)cncc6[nH]5)c4c3)c2)C1 [Compound 342, 2-(5-(5-((3,3-Difluoropyrrolidin-1-yl)methyl)pyridin-3-yl)-1H-indazol-3-yl)-7-(piperidin-1-yl)-3H-imidazo[4,5-c]pyridine] |
| 8.52 | CN(C)c1cncc(-c2ccc3[nH]nc(-c4nc5c(-c6ccsc6)cncc5[nH]4)c3c2)c1 [Compound 295, N,N-Dimethyl-5-(3-(7-(thiophen-3-yl)-3H-imidazo[4,5-c]pyridin-2-yl)-1H-indazol-5-yl)pyridin-3-amine] |
| 8.70 | CCC(=O)Nc1cncc(-c2ccc3[nH]nc(-c4nc5c(-c6ccsc6)cncc5[nH]4)c3c2)c1 [Compound 289, N-(5-(3-(7-(Thiophen-3-yl)-3H-imidazo[4,5-c]pyridin-2-yl)-1H-indazol-5-yl)pyridin-3-yl)propionamide] |
| 7.40 to 7.89 | CN1CCN(c2cncc3[nH]c(-c4n[nH]c5ccc(-c6cccnc6)cc45)nc23)CC1 [Compound 4, 7-(4-methylpiperazin-1-yl)-2-(5-(pyridin-3-yl)-1H-indazol-3-yl)-3H-imidazo[4,5-c]pyridine] |
| 7.26 | Fc1cccc(-c2cncc3[nH]c(-c4n[nH]c5ccc(-c6cncc(CN7CCC(F)(F)C7)c6)cc45)nc23)c1 [Compound 336, 2-(5-(5-((3,3-Difluoropyrrolidin-1-yl)methyl)pyridin-3-yl)-1H-indazol-3-yl)-7-(3-fluorophenyl)-3H-imidazo[4,5-c]pyridine] |
| 6.75 to 7.08 | CN(C)Cc1cncc(-c2ccc3[nH]nc(-c4nc5c(N6CCN(C)CC6)cncc5[nH]4)c3c2)c1 [Compound 3, N,N-dimethyl-1-(5-(3-(7-(4-methylpiperazin-1-yl)-3H-imidazo[4,5-c]pyridin-2-yl)-1H-indazol-5-yl)pyridin-3-yl)methanamine] |
| 8.52 | CC(C)(C)CC(=O)Nc1cncc(-c2ccc3[nH]nc(-c4nc5c(-c6ccsc6)cncc5[nH]4)c3c2)c1 [Compound 304, 3,3-Dimethyl-N-(5-(3-(7-(thiophen-3-yl)-3H-imidazo[4,5-c]pyridin-2-yl)-1H-indazol-5-yl)pyridin-3-yl)butanamide] |
| 6.50 | CN1CCN(c2cncc3[nH]c(-c4n[nH]c5ccc(-c6cncc(NC(=O)C7CC7)c6)cc45)nc23)CC1 [Compound 260, N-(5-(3-(7-(4-Methylpiperazin-1-yl)-3H-imidazo[4,5-c]pyridin-2-yl)-1H-indazol-5-yl)pyridin-3-yl)cyclopropanecarboxamide] |
| 6.84 to 6.90 | CC(C)C(=O)Nc1cncc(-c2ccc3[nH]nc(-c4nc5c(N6CCN(C)CC6)cncc5[nH]4)c3c2)c1 [Compound 2, N-(5-(3-(7-(4-methylpiperazin-1-yl)-3H-imidazo[4,5-c]pyridin-2-yl)-1H-indazol-5-yl)pyridin-3-yl)isobutyramide] |
| 5.15 | O=C(Nc1cncc(-c2ccc3[nH]nc(-c4nc5c(-c6ccncc6)cncc5[nH]4)c3c2)c1)C1CCCC1 [Compound 170, N-(5-(3-(7-(Pyridin-4-yl)-3H-imidazo[4,5-c]pyridin-2-yl)-1H-indazol-5-yl)pyridin-3-yl)cyclopentanecarboxamide] |
| 8.10 | O=C(Nc1cncc(-c2ccc3[nH]nc(-c4nc5ccncc5[nH]4)c3c2)c1)C1CC1 [Compound 283, N-(5-(3-(3H-Imidazo[4,5-c]pyridin-2-yl)-1H-indazol-5-yl)pyridin-3-yl)cyclopropanecarboxamide] |
